One compound from patent US20080287425A1, “Method for Controlling Chinch Bugs” (FMC CORPORATION, priority 2005, published 2008) can be followed below.

In the data set the test system is adult southern chinch bugs. Kind of data set: LC-50 of bifenthrin on chinch bug populations, dipped St. Augustine grass stolons in Petri dishes. In kind it is in vivo, Blissus insularis. Conditions: about 24 hours at about 28° C. The text has this:
Developing Chinch Bug Resistance to Bifenthrin (Synthetic Pyrethroid) Serial dilutions of bifenthrin were made from Talstar Flowable 7.9% AI (FMC, Philadelphia, Pa.). Freshly harvested St. Augustine grass stolons (about 10 cm long) were dipped into the dilutions and allowed to air dry. The stolons were placed individually into Petri dishes (15 cm diameter) containing moist filter paper to maintain high humidity. Twenty adult southern chinch bugs were placed into each Petri dish and held for about 24 hours at about 28° C. Sample sizes of adults tested ranged from 200 (20 each at 10 dose levels) to 480 (20 each at 24 dose levels) for each location to estimate LC-50 for that location. Different numbers of adults tested per location depended on availability of adults plus variability noted in testing. Since the objective of this study was to estimate LC-50 values, doses expected to give 25 to 75% mortality for best LC-50 were used. Mortality was defined as virtually no movement by an adult during a 5 minute observation period through a 5× large magnifying lens. The no movement criterion was used to avoid ambiguities of comatose, unable to stand, moribund, etc.

On to `Cc1c(COC(=O)[C@@H]2[C@H](/C=C(\Cl)C(F)(F)F)C2(C)C)cccc1-c1ccccc1` (racemic) [bifenthrin], for which the LC-50 reads like this: (chinch bugs from Belle Glade, control problem in the field: No) 2.6 ppm; (chinch bugs from Clermont, control problem in the field: Yes) 78.7 ppm; (chinch bugs from Daytona Beach, control problem in the field: Yes) 243.3 ppm; (chinch bugs from Fort Pierce, control problem in the field: No) 2.8 ppm; (chinch bugs from Gainesville, control problem in the field: No) 10.6 ppm; (chinch bugs from Kendall Lakes, control problem in the field: No) 9.3 ppm. In addition, the LC-50 (chinch bugs from Key Largo, control problem in the field: Yes) amounted to 148.2 ppm; the LC-50 (chinch bugs from Lithia, control problem in the field: No) is given as 5.4 ppm; the LC-50 (chinch bugs from Orlando, control problem in the field: No) is 2.3 ppm; the LC-50 (chinch bugs from Ormond Beach, control problem in the field: Yes) is 698.8 ppm; the LC-50 (chinch bugs from Palm Coast, control problem in the field: Yes) is reported as 1,693 ppm; the LC-50 (chinch bugs from Palmetto, control problem in the field: Yes) is 493.6 ppm. Also, the LC-50 was determined as 7.3 ppm (chinch bugs from Royal Palm Beach, control problem in the field: No); 89.2 ppm (chinch bugs from Sarasota, control problem in the field: Yes); 159.3 ppm (chinch bugs from Spring Hill, control problem in the field: Yes); 9.7 ppm (chinch bugs from Tamarac, control problem in the field: No).
